Measurements published in ChEMBL document CHEMBL1134027, “An improved method for the rapid preparation of 2-amino-4,4a-dihydro-4a,7-dimethyl-3H-phenoxazine-3-one, a novel antitumor agent” (2001).

Experiments:
Format in all cases: functional
[1] = Inhibition of incorporation of [3H]thymidine into DNA of human lymphoid leukemia HAL-01 cell at 0 uM after 4 hr
[2] = Inhibition of incorporation of [3H]thymidine into DNA of human lymphoid leukemia HAL-01 cell at 200 uM after 4 hr
[3] = Inhibition of incorporation of [3H]thymidine into DNA of human lymphoid leukemia HAL-01 cell at 200 uM after 2 hr
HL-60 [4] = assay: Inhibition of incorporation of [3H]thymidine into DNA of human myeloid leukemia HL-60 cell at 0 uM after 2 hr
[5] = Inhibition of incorporation of [3H]thymidine into DNA of human lymphoid leukemia HAL-01 cell at 100 uM after 1 hr
[6] = Inhibition of incorporation of [3H]thymidine into DNA of human lymphoid leukemia HAL-01 cell at 100 uM after 8 hr
HL-60 [7] = assay: Inhibition of incorporation of [3H]-thymidine into DNA of human myeloid leukemia HL-60 cell at 100 uM after 4 hr
[8] = Inhibition of incorporation of [3H]thymidine into DNA of human lymphoid leukemia HAL-01 cell at 0 uM after 8 hr
HL-60 [9] = assay: Inhibition of incorporation of [3H]thymidine into DNA of human myeloid leukemia HL-60 cell at 200 uM after 8 hr
[10] = Inhibition of incorporation of [3H]thymidine into DNA of human lymphoid leukemia HAL-01 cell at 200 uM after 1 hr
HL-60 [11] = assay: Inhibition of incorporation of [3H]thymidine into DNA of human myeloid leukemia HL-60 cell at 0 uM after 1 hr
HL-60 [12] = assay: Inhibition of incorporation of [3H]thymidine into DNA of human myeloid leukemia HL-60 cell at 200 uM after 2 hr
HL-60 [13] = assay: Inhibition of incorporation of [3H]thymidine into DNA of human myeloid leukemia HL-60 cell at 100 uM after 2 hr
[14] = Inhibition of incorporation of [3H]thymidine into DNA of human lymphoid leukemia HAL-01 cell at 0 uM after 2 hr
[15] = Inhibition of incorporation of [3H]thymidine into DNA of human lymphoid leukemia HAL-01 cell at 100 uM after 2 hr
[16] = Inhibition of incorporation of [3H]thymidine into DNA of human lymphoid leukemia HAL-01 cell at 0 uM after 1 hr
HL-60 [17] = assay: Inhibition of incorporation of [3H]thymidine into DNA of human myeloid leukemia HL-60 cell at 100 uM after 1 hr
HL-60 [18] = assay: Inhibition of incorporation of [3H]thymidine into DNA of human myeloid leukemia HL-60 cell at 100 uM after 8 hr
[19] = Inhibition of incorporation of [3H]thymidine into DNA of human lymphoid leukemia HAL-01 cell at 200 uM after 8 hr
[20] = Inhibition of incorporation of [3H]thymidine into DNA of human lymphoid leukemia HAL-01 cell at 100 uM after 4 hr
HL-60 [21] = assay: Inhibition of incorporation of [3H]thymidine into DNA of human myeloid leukemia HL-60 cell at 200 uM after 4 hr
HL-60 [22] = assay: Inhibition of incorporation of [3H]thymidine into DNA of human myeloid leukemia HL-60 cell at 200 uM after 1 hr
HL-60 [23] = assay: Inhibition of incorporation of [3H]thymidine into DNA of human myeloid leukemia HL-60 cell at 0 uM after 8 hr
HL-60 [24] = assay: Inhibition of incorporation of [3H]-thymidine into DNA of human myeloid leukemia HL-60 cell at 0 uM after 4 hr

Molecule `Cc1ccc2c(c1)OC1(C)CC(=O)C(N)=CC1=N2` (centres undefined) has a No. of cells [1] of 34000, a No. of cells [2] of 10000 and a No. of cells [3] of 9000. The No. of cells (HL-60 [4]) was 21000, the No. of cells [5] was 0 and the No. of cells [6] was 19000. The No. of cells (HL-60 [7]) was 15000, the No. of cells [8] was 40000 and the No. of cells (HL-60 [9]) was 12000. The No. of cells [10] was 0, the No. of cells (HL-60 [11]) was 0 and the No. of cells (HL-60 [12]) was 6000. The No. of cells (HL-60 [13]) was 14000, the No. of cells [14] was 25000 and the No. of cells [15] was 17000. It also gave a No. of cells [16] of 0, a No. of cells (HL-60 [17]) of 0 and a No. of cells (HL-60 [18]) of 19000. The No. of cells [19] was 14000, the No. of cells [20] was 18000 and the No. of cells (HL-60 [21]) was 9000. For the same molecule, the No. of cells (HL-60 [22]) was 0, the No. of cells (HL-60 [23]) was 35000 and the No. of cells (HL-60 [24]) was 25000.
